{
  "source": "patent US8552007B2",
  "about": "“Mesoionic pesticides” (E.I. du Pont de Nemours and Company, priority 2008, dated 2013)",
  "key": {"[1]": {"system": "corn planthopper (Peregrinus maidis)", "test": "whole plant or invertebrate", "format": "in vivo", "conditions": "144 h", "protocol": "For evaluating control of corn planthopper (Peregrinus maidis) through contact and/or systemic means, the test unit consisted of a small open container with a 3-4-day-old maize plant (spike) inside. White sand was added to the top of the soil prior to application. Test compounds were formulated and sprayed at 250 and 50 ppm and replicated three times as described for Test A. After spraying, the test units were allowed to dry for 1 h before they were post-infested with ˜15-20 nymphs (18 to 21 day old) by sprinkling them onto the sand with a salt shaker. A black, screened cap was placed on the top of the cylinder. The test units were held for 6 days in a growth chamber at 22-24° C. and 50-70% relative humidity. Each test unit was then visually assessed for insect mortality."}, "[2]": {"system": "green peach aphid (Myzus persicae)", "test": "whole plant or invertebrate", "format": "in vivo", "conditions": "144 h, sprayed at 250 ppm, radish plant, 6 days", "text": "For evaluating control of green peach aphid (Myzus persicae) through contact and/or systemic means, the test unit consisted of a small open container with a 12-15-day-old radish plant inside. This was pre-infested by placing on a leaf of the test plant 30-40 aphids on a piece of leaf excised from a culture plant (cut-leaf method). The aphids moved onto the test plant as the leaf piece desiccated. After pre-infestation, the soil of the test unit was covered with a layer of sand.\nTest compounds were formulated and sprayed at 250 ppm as described for Test A. The applications were replicated three times. After spraying of the formulated test compound, each test unit was allowed to dry for 1 h and then a black, screened cap was placed on top. The test units were held for 6 days in a growth chamber at 19-21° C. and 50-70% relative humidity. Each test unit was then visually assessed for insect mortality."}, "[3]": {"system": "potato leafhopper (Empoasca fabae)", "test": "whole plant or invertebrate", "format": "in vivo", "conditions": "144 h, Soleil bean plant, 6 days; for mortality at 50 ppm: sprayed at 50 ppm; for mortality at 250 ppm: sprayed at 250 ppm", "protocol": "For evaluating control of potato leafhopper (Empoasca fabae) through contact and/or systemic means, the test unit consisted of a small open container with a 5-6-day-old Soleil bean plant (primary leaves emerged) inside. White sand was added to the top of the soil and one of the primary leaves was excised prior to application.\nTest compounds were formulated and sprayed at 250 and 50 ppm, and the tests were replicated three times as described for Test A. After spraying, the test units were allowed to dry for 1 h before they were post-infested with 5 potato leafhoppers (18-21-day-old adults). A black, screened cap was placed on the top of the cylinder. The test units were held for 6 days in a growth chamber at 24° C. and 70% relative humidity. Each test unit was then visually assessed for insect mortality."}, "[4]": {"system": "cat flea (Ctenocephalides felis)", "test": "whole plant or invertebrate", "format": "in vivo", "conditions": "20 μL of 500 ppm solution on filter paper, adult fleas, 48 hours", "protocol": "For evaluating control of the cat flea (Ctenocephalides felis), a test compound was solubilized in acetone:water (75:25) to a final test rate of 500 ppm. Then 20 μL of the 500 ppm solution was applied to filter paper in the bottom of a tube. The tube was allowed to dry for 3 hours. Then approximately 10 adult fleas were added to the tube and the tube was capped. The fleas were evaluated for mortality 48 hours later."}, "[5]": {"system": "cat flea (Ctenocephalides felis)", "test": "whole plant or invertebrate", "format": "in vivo", "conditions": "30 ppm in bovine blood, adult fleas, 72 h", "protocol": "For evaluating control of the cat flea (Ctenocephalides felis), a test compound was solubilized in propylene glycol/glycerol formal (60:40) and then diluted in bovine blood to a final test rate of 30 ppm. The treated blood was placed in a tube with the bottom of the tube covered with a membrane. Approximately 10 adult cat fleas were allowed to feed through the membrane on the treated blood. The adult fleas were evaluated for mortality 72 h later."}, "[6]": {"conditions": "sprayed at 50 ppm, maize plant, 6 days, read-out: mortality"}, "[7]": {"conditions": "sprayed at 250 ppm, maize plant, 6 days, read-out: mortality"}},
  "note": "Where a name gives a salt, the structure may show the parent alone. Read-outs that look alike come from different tables or passages of the source.",
  "data": [
    {"smiles": "O=c1c(C2CCc3ccccc32)c([O-])[n+](Cc2ccc(Cl)nc2)c2ccccn12", "note": "(stereo not drawn) [Compound 757]", "values": [
      {"measurement": "mortality at 50 ppm", "setting": "[1]", "result": "≥ 80", "unit": "%"},
      {"measurement": "mortality at 250 ppm", "setting": "[1]", "result": "≥ 80", "unit": "%"}
    ]},
    {"smiles": "O=c1c(I)c([O-])[n+](CC(F)(F)F)c2ccccn12", "note": "[Compound 111]", "values": [
      {"measurement": "mortality at 250 ppm", "setting": "[2]", "result": "≥ 80", "unit": "%"},
      {"measurement": "mortality at 50 ppm", "setting": "[1]; [6]", "result": "≥ 80", "unit": "%"},
      {"measurement": "mortality at 250 ppm", "setting": "[1]; [7]", "result": "≥ 80", "unit": "%"},
      {"measurement": "mortality at 50 ppm", "setting": "[3]", "result": "≥ 80", "unit": "%"},
      {"measurement": "mortality at 250 ppm", "setting": "[3]", "result": "≥ 80", "unit": "%"}
    ]},
    {"smiles": "CC(C)c1c([O-])[n+](CC(F)(F)F)c2ccccn2c1=O", "note": "[Compound 115]", "values": [
      {"measurement": "mortality at 250 ppm", "setting": "[1]; [7]", "result": "≥ 80", "unit": "%"},
      {"measurement": "mortality at 500 ppm", "setting": "[4]", "result": "≥ 50", "unit": "%"}
    ]},
    {"smiles": "COc1cccc(-c2ccc(C[n+]3c([O-])c(-c4ccccc4)c(=O)n4ccccc43)cn2)c1", "note": "[Compound 599]", "values": [
      {"measurement": "mortality at 50 ppm", "setting": "[1]; [6]", "result": "≥ 80", "unit": "%"},
      {"measurement": "mortality at 30 ppm", "setting": "[5]", "result": "≥ 50", "unit": "%"},
      {"measurement": "mortality at 500 ppm", "setting": "[4]", "result": "≥ 50", "unit": "%"}
    ]},
    {"smiles": "O=c1cc([O-])[n+](CC(F)(F)F)c2ccccn12", "note": "(as salt: salt) [Compound 610, 2-hydroxy-4-oxo-1-(2,2,2-trifluoroethyl)-4H-pyrido[1,2-a]-pyrimidinium inner salt]", "values": [
      {"measurement": "melting point", "result": "214 to 215", "unit": "°C"}
    ]},
    {"smiles": "O=c1c(-c2ccc(F)nc2)c([O-])[n+](CC(F)(F)F)c2ccccn12", "note": "[Compound 571]", "values": [
      {"measurement": "mortality at 50 ppm", "setting": "[1]; [6]", "result": "≥ 80", "unit": "%"},
      {"measurement": "mortality at 250 ppm", "setting": "[1]; [7]", "result": "≥ 80", "unit": "%"},
      {"measurement": "mortality at 250 ppm", "setting": "[3]", "result": "≥ 80", "unit": "%"}
    ]},
    {"smiles": "COc1cccc(-c2ncc(C[n+]3c([O-])c(-c4ccccc4)c(=O)n4ccccc43)s2)c1", "note": "[Compound 520]", "values": [
      {"measurement": "mortality at 500 ppm", "setting": "[4]", "result": "≥ 50", "unit": "%"}
    ]},
    {"smiles": "COc1cccc(-c2ncc(C[n+]3c([O-])c(I)c(=O)n4ccccc43)s2)c1", "note": "[Compound 613, 2-hydroxy-3-iodo-1-[[2-(3-methoxyphenyl)-5-thiazolyl]methyl]-4-oxo-4H-pyrido[1,2-a]-pyrimidinium inner salt]", "values": [
      {"measurement": "mortality at 50 ppm", "setting": "[1]; [6]", "result": "≥ 80", "unit": "%"},
      {"measurement": "mortality at 250 ppm", "setting": "[1]; [7]", "result": "≥ 80", "unit": "%"},
      {"measurement": "mortality at 250 ppm", "setting": "[3]", "result": "≥ 80", "unit": "%"}
    ]},
    {"smiles": "O=c1c(-c2ccncc2Cl)c([O-])[n+](CC(F)(F)F)c2ccccn12", "note": "[Compound 121]", "values": [
      {"measurement": "mortality at 50 ppm", "setting": "[1]; [6]", "result": "≥ 80", "unit": "%"},
      {"measurement": "mortality at 250 ppm", "setting": "[1]; [7]", "result": "≥ 80", "unit": "%"},
      {"measurement": "mortality at 30 ppm", "setting": "[5]", "result": "≥ 50", "unit": "%"},
      {"measurement": "mortality at 500 ppm", "setting": "[4]", "result": "≥ 50", "unit": "%"}
    ]},
    {"smiles": "O=c1c(-c2ccccc2)c([O-])[n+](C2CCOCC2)c2ccccn12", "note": "[Compound 583]", "values": [
      {"measurement": "mortality at 250 ppm", "setting": "[1]; [7]", "result": "≥ 80", "unit": "%"}
    ]},
    {"smiles": "O=c1c(-c2ccc(Cl)nc2)c([O-])[n+](CC(F)(F)F)c2ccccn12", "note": "[Compound 570]", "values": [
      {"measurement": "mortality at 50 ppm", "setting": "[1]; [6]", "result": "≥ 80", "unit": "%"},
      {"measurement": "mortality at 250 ppm", "setting": "[1]; [7]", "result": "≥ 80", "unit": "%"},
      {"measurement": "mortality at 50 ppm", "setting": "[3]", "result": "≥ 80", "unit": "%"},
      {"measurement": "mortality at 250 ppm", "setting": "[3]", "result": "≥ 80", "unit": "%"}
    ]},
    {"smiles": "O=C(c1c([O-])[n+](CC(F)(F)F)c2ccccn2c1=O)C(F)(F)F", "note": "[Compound 711, 2-hydroxy-4-oxo-3-(2,2,2-trifluoroacetyl)-1-(2,2,2-trifluoroethyl)-4H-pyrido[1,2-a]-pyrimidinium inner salt]", "values": [
      {"measurement": "mortality at 50 ppm", "setting": "[3]", "result": "≥ 80", "unit": "%"}
    ]}
  ]
}
